Data published in patent US12496297B1, “Compositions of autophagy modulating agents and uses thereof” (Washington University, priority 2020, dated 2025).
“Also recorded” adds a separate entry of the source. Read-outs that look alike come from different tables or passages of the source.

Experiments:
misfolded ATZ [1] = settings: mammalian cell models of ATD; previously shown; cited from earlier work
[2] = test system: α1-antitrypsin Z variant (ATZ); test: Steady state levels of ATZ in HTO/Z cell line (immunoblot); activity of G2 analogs; type: cell-based, human; settings: for Activity: G2 and G2 analogs, positive activity if shown to have any activity, not quantified
Method: For experiments with G2 analogs, Tet-off inducible cell lines were cultured in absence of doxycycline for at least 12 days to ensure expression of […] or its variants. The cells were then sub-cultured into separate monolayers in fresh complete growth medium and incubated for 48 hours in the absence or presence of G2 analog. […] All compounds available commercially were purchased except for G2-22, which was synthesized with routine chemistry.
Cells were lysed in NP40 buffer and then separated into insoluble and soluble fractions according to a previously established technique. Samples were subjected to immunoblot analysis for AT and GAPDH. For immmunoblot analysis to detect AT or GAPDH, cells were lysed in 50 mM Tris-HCl, 150 mM NaCl, 1% NP-40, pH 8.0. Protein concentrations were determined by BCA protein assay (Pierce Biotechnology, Rockford, IL). […] The membranes were blocked in 5% milk and then incubated overnight at 4° C. with primary antibody for AT (1:1000, Diasorin), LC3 (1:2000, Sigma), p62 (1:1000, Cell signaling, Danvers, MA), ATG5 (1:1000, Cell signaling), mTOR substrate sampler (1:1000 for all antibodies, Cell signaling). Donkey anti-goat Ig (Jackson Labs, Bar Harbor, ME), goat anti-rabbit lg (1:50,000), or goat anti-mouse Ig (1:50,000) were used as secondary antibodies in TBST at RT, 1 hour. Blots were visualized with ECL or West Femto from Pierce. Membranes were re-probed with GAPDH (1:5000, Sigma) as loading control. Insoluble samples were stained with Gel Code Blue as loading control.

PiZ mouse model of ATD = test: PiZ mouse model of ATD, oral gavage; type: in vivo; settings: for hepatic / liver fibrosis (Sirius Red staining): G2-19: 3 weeks of treatment vs placebo
Method: The PiZ mouse model has been described previously (Hidvegi 2010 Science 329 (5988): 229-232). For experiments involving drug administration in mice in vivo, doses of 5-50 mg/kg/day for the G2 analog were given for 3 weeks, and then liver histological and biochemical characteristics were assessed exactly as previously described (Hidvegi 2005J Biol Chem 280 (47): 39002-39015). Each experimental group contained 4-6 four- to six-month old male mice randomly chosen from littermates. G2 analogs were delivered by oral gavage. Control mice were littermates given DMSO by gavage. The outcome was determined by evaluating 1) the hepatic ATZ load by immunoblotting with anti-AT, immunostaining with PAS/D; 2) hepatic fibrosis using Sirius Red staining; 3) autophagy by immunoblotting with anti-LC3 and anti-p62, and imaging for GFP+autophagosomes; 4) monitoring blood glucose levels by glucometer and blood insulin levels by ELISA Wide Range Assay (CrystalChem). For immunostaining, liver samples were fixed in 10% Formalin, followed by staining with PAS after diastase and Sirius Red using standard techniques. Quantitative evaluation of immunostaining and histochemical staining was carried out by a member of the team that was blinded to group allocation. Blood glucose and insulin levels were quantified as previously described (Wang 2019 PLOS One 14: e0209748).
For immunoblot analysis of proteins in liver, the liver was snap frozen in liquid nitrogen and stored at −80° C. Liver was homogenized in 50 mM Tris-HCl pH 8.0, 150 mM NaCl, 2 mM KCl, 2 mM MgCl2, 0.5% Triton X-100, 0.5% deoxycholic acid containing 0.1 mM […] and Complete protease inhibitor cocktail from Roche. Total protein concentration was measured by BCA assay (Pierce) and followed by western blotting as described previously.

[3] = test system: HTT inclusion bodies (IBs) in HD-MSNs; test: HTT inclusion bodies / mHTT aggregation in HD-MSNs; type: cell-based, human
Method: Adult dermal fibroblasts from symptomatic HD patients (Coriell NINDS and NIGMS Repositories: ND33947, ND30013, GM02173, GM04230, GM04198, GM02147), presymptomatic HD patients (GM04717, GM04861, GM04855, GM04831, GM04857, GM04829), and healthy controls (GM02171) were acquired from the Coriell Institute for Medical Research. The lentiviral cocktail of rtTA, pTight-9-124-BclxL, CTIP2, MYT1L, DLX1, and DLX2 was added to human fibroblasts for 16 h, then cells were washed and fed with fibroblasts media containing 1 μg/mL doxycycline (DOX). Briefly, transduced fibroblasts were maintained in fibroblasts media for two days with doxycycline before selection with Puromycin ([…]) on day 3, then were plated onto poly-ornithine, fibronectin, and laminin-coated coverslips on day 5. Cells were subsequently maintained in NeurobasalA (Gibco) media containing B-27 plus supplement and GlutaMAX supplemented with valproic acid (1 mM), dibutyryl cAMP ([…]), BDNF (10 ng/ml), NT-3 (10 ng/ml), and RA ([…]) until day 13. […]
Reprogramming cells were fixed with 4% paraformaldehyde (Electron Microscopy Sciences, #15710) for 20 min at room temperature (RT), and then permeabilized with 0.2% Triton X-100 for 10 min at RT. […] Images were captured using a Leica SP5X white light laser confocal system with Leica Application Suite (LAS) Advanced Fluorescence 2.7.3.9723.

[4] = test system: striatal neurons from control 2171WT; test: Cell death (SytoX assay) in striatal neurons from control individual; type: cell-based, human; settings: doses of 5 and 10 μM; data not shown
Method: (§1) Striatal neurons from Huntington's patient GM 04198 and control 2171WT were prepared as previously described. Cells, at 24 days after induction, were incubated with G2 analog or an equivalent volume of DMSO for 14 days (drug/DMSO added with medium change every 4 days) and then cell death was determined by SytoX assay as previously described.

[5] = test system: striatal neurons from Huntington's patient GM 04198; test: Cell death (SytoX assay) in striatal neurons from Huntington's patient; type: cell-based, human
Method: as §1

[6] = test system: C. elegans model of ATD (sGFP::ATZ); test: Quantification of ATZ accumulation in C. elegans model of ATD (Z worm); type: in vivo
Method: The C. elegans strain VK1882 (vkls1882 [nhx-2p::sGFP::ATZ; myo-2p::mCherry) was routinely cultured at 20° C. on nematode growth medium plates seeded with E. coli strain OP50. Quantitative analysis of ATZ accumulation was carried out by detection of fluorescence using the Thermofisher CellInsight CX-7 high content imager as previously described. L4 stage animals were placed into wells of 384-well plates (30 per well) containing G2 analogs or an equivalent volume of DMSO. Following incubation at 20° C. for 24 hours, sodium azide was added to a final concentration of […] to anesthetize the animals and then each well was imaged on the CX-7 high content imager for quantification.

[7] = test system: α1-antitrypsin Z variant (ATZ); test: Steady state levels of ATZ in HTO/Z cell line (immunoblot); activity of G2 analogs; type: cell-based, human; settings: 24 hr treatment, 0.5 and 2.5 μM, FIG. 22C
HD-MSNs [8] = test: Neuronal cell death assay in HD-MSNs (SYTOX, Caspase-3/7, Annexin V); type: cell-based, human
Method: (§2) Adult dermal fibroblasts from symptomatic HD patients (Coriell NINDS and NIGMS Repositories: ND33947, ND30013, GM02173, GM04230, GM04198, GM02147), presymptomatic HD patients (GM04717, GM04861, GM04855, GM04831, GM04857, GM04829), and healthy controls (GM02171) were acquired from the Coriell Institute for Medical Research. The lentiviral cocktail of rtTA, pTight-9-124-BclxL, CTIP2, MYT1L, DLX1, and DLX2 was added to human fibroblasts for 16 h, then cells were washed and fed with fibroblasts media containing 1 μg/mL doxycycline (DOX). […]
0.1 μM SYTOX gene nucleic acid stain (Invitrogen, S7020) and 1 μl/mL of Hoeschst 33342 (Thermo Scientific, 66249) were added into cell medium. […] Images were taken using Leica DMI 4000B inverted microscope with Leica Application Suite (LAS) Advanced Fluorescence.
Cells were treated with 1× Essen Bioscience IncuCyte® Caspase-3/7 Green Reagent (final concentration 5 µM) and 1× Essen Bioscience IncuCyte® Annexin V Green or Red Reagent on day 22 or 26. […] Images were analyzed for the number of green or red objects per well. For the apoptotic index, the number of green or red objects (i.n., fluorescence cells) divided by phase area (μm2) per well was quantified by the IncuCyte® S3 Live-Cell Analysis System.

HD-MSNs [9] = test: Autophagy measurement in HD-MSNs (p62 immunoblot, CYTO-ID green); type: cell-based, human; settings: 0.5 μM vs DMSO
Method: To test whether the differentially expressed genetic pathways between pre-HD-MSNs and HD-MSNs would be reflected at the cellular level, whether the autophagy activity would be different between pre-HD- and HD-MSNs was assessed. CYTO-ID assay, a fluorescence-based live-cell assay for accumulated autophagic vacuoles was performed as well as immunoblot for p62/SQSTM1 expression, a marker used to monitor autophagic activity due to its binding to LC3 and degradation by autophagy.
as §2
Cells were lysed in a 2% SDS buffer. The concentrations of whole-cell lysates were measured using the Pierce BCA protein assay kit (Thermo Scientific, #23227). […]

misfolded ATZ [10] = test: Autophagic degradation of ATZ in mammalian cell line model of ATD; type: cell-based; settings: effect blocked when autophagy gene ATG14 was deleted
[11] = PiZ mouse, marker of autophagic activity

COc1ccc(Cl)cc1C(N)=O [G2, 5-chloro-2-methoxybenzamide]
autophagic degradation of misfolded ATZ (misfolded ATZ [1]): promoted autophagic degradation
Activity [2]: Active
hepatic ATZ load (PiZ mouse model of ATD; PiZ mouse): significant reduction of hepatic ATZ load
insulin secretion (PiZ mouse model of ATD; PiZ mouse): without affecting insulin secretion
LC3-II conversion in the liver (PiZ mouse model of ATD; [11]): increased LC3-II conversion
p62 levels in the liver (PiZ mouse model of ATD; [11]): decreased p62 levels
hepatic / liver fibrosis (Sirius Red staining) (PiZ mouse model of ATD; PiZ mouse): significant reduction
liver damage (PiZ mouse model of ATD; mouse model of ATD): reverse liver damage

Cn1ccc2cc(Cl)ccc2c1=O [G2-19, 6-chloro-2-methylisoquinolin-1(2H)-one]
effect on cellular ATZ levels ([2]; 48 hrs incubation, immunoblot, FIG. 8 / FIG. 14): reduces ATZ levels in a dose-dependent manner; also recorded: more potent than G2-3
Activity [2]: Active (Highly Active)
reduction of ATZ levels ([2]; dose of 5 μM, 48 hrs, FIG. 8): 60%
HTT inclusion body (IB) ([3]; HD-MSNs, compared to the inactive form, FIG. 13): lowers HTT inclusion body (IB)
neuronal death (percent SYTOX positive cells) [4]: no effect
cell death (percent SYTOX positive cells) ([5]; FIG. 11, dose-dependent between 0.5 and 10 μM, 14 days): reduces cell death
neuronal death (percent SYTOX positive cells) ([5]; second experiment, FIG. 12, doses of 5 and 10 μM): reduced neuronal death
hepatic ATZ load (PiZ mouse model of ATD; PiZ mouse): reduced hepatic ATZ load
insulin secretion (PiZ mouse model of ATD; PiZ mouse): without affecting insulin secretion
hepatic / liver fibrosis (Sirius Red staining) (PiZ mouse model of ATD; PiZ mouse): marked and statistically significant decrease
effect on ATZ levels in intestinal cells of the ATZ worm ([6]; 24 h incubation, GFP/RFP fluorescence, FIG. 9): dose-dependent decrease in ATZ levels; also recorded: not as potent as positive control prochlorperazine (PCP)
reduction in ATZ levels (fluorescence) ([6]; at 40 µM, 24 h incubation, FIG. 9): ~50%

O=c1ccc2c(Cl)cc(Cl)cc2[nH]1 [G2-115, 5,7-dichloroquinolin-2(1H)-one]
Activity [2]: Active
IC50 ([2]; TABLE 1, assay not given): 0.1 to 1 µM
steady-state levels of ATZ [7]: decreased the steady-state levels of ATZ
mHTT aggregation ([3]; HD-MSNs from three patients, 0.5 μM vs DMSO, PID30, FIG. 18K): significantly lower levels of mHTT aggregation
MSN death by Caspase 3/7 activation and Annexin V signals (HD-MSNs [8]; HD.40-MSNs three concentrations PID 30 (FIG. 18I), three patients 0.5 μM (FIG. 18J)): significant reduction in MSN death in a dose-dependent manner
MSN death measured by SYTOX (HD-MSNs [8]; HD.44-MSNs, 0.125, 0.25, or 0.5 µM, PID 35, FIG. 18H): significant reduction in MSN death in a dose-dependent manner
p62/SQSTM1 protein levels (immunoblot) (HD-MSNs [9]; PID26, FIG. 18F): decrease in p62/SQSTM1 protein levels
CYTO-ID signal (autophagic vacuoles) (HD-MSNs [9]; PID 26, FIG. 18G): increase in CYTO-ID signal

COc1ccc(Cl)cc1C(=O)NCCc1ccc(S(=O)(=O)NC(=O)NC2CCCCC2)cc1 [GB, 5-chloro-N-(4-(N-(cyclohexylcarbamoyl)sulfamoyl)phenethyl)-2-methoxybenzamide, reference compound]
autophagic degradation of misfolded ATZ (misfolded ATZ [10]): enhances the autophagic degradation of misfolded ATZ
accumulation of misfolded, aggregated ATZ ([6]; GB administered to ATD C. elegans model): reduced accumulation of misfolded, aggregated ATZ
